From the OligoGym collection come the findings set out here.

HELM strings list units from the 5' end as sugar, base in round brackets, then linkage (d deoxyribose, r ribose, m 2'-O-methyl, p phosphodiester). Strings are as the collection lists them; they lack the last nucleoside at the 3' end of the tested compound. [moe] = 2'-O-(2-methoxyethyl) (MOE); [sp] = phosphorothioate linkage; [m5C] = 5-methylcytosine

This series has as its target GFAP. The series can be described thus: mouse, dose not given. Particulars: ASO.
In turn, “RNA1{[moe](A)[sp].[moe](G)p.[moe](T)p.[moe](G)p.d(T)[sp].d(G)[sp].d(T)[sp].d(A)[sp].d(T)[sp].d(T)[sp].d(A)[sp].d(G)[sp].d(G)[sp].d(A)[sp].[moe](T)p.[moe]([m5C])p.[moe]([m5C])p.[moe]([m5C])[sp].[moe](A)}$$$$ (last 3' nucleoside missing)” came in with a 3 h FOB score of 5 score 0-7.
The same measure for “RNA1{[moe](G)[sp].[moe](T)p.[moe](G)p.[moe]([m5C])p.[moe]([m5C])[sp].d([m5C])[sp].d([m5C])[sp].d([m5C])[sp].d([m5C])[sp].d(G)[sp].d([m5C])[sp].d([m5C])[sp].d([m5C])[sp].d(T)[sp].d([m5C])[sp].[moe]([m5C])p.[moe](T)p.[moe]([m5C])[sp].[moe]([m5C])}$$$$ (last 3' nucleoside missing)”: 2 score 0-7; for “RNA1{[moe](A)[sp].[moe](G)p.[moe](G)p.[moe]([m5C])p.[moe](A)p.[moe]([m5C])p.d(A)[sp].d(G)[sp].d(T)[sp].d(T)[sp].d([m5C])[sp].d([m5C])[sp].d([m5C])[sp].d(A)[sp].d(G)[sp].d(A)[sp].[moe](T)p.[moe](A)[sp].[moe]([m5C])}$$$$ (last 3' nucleoside missing)”: 1 score 0-7; for “RNA1{[moe](A)[sp].[moe](T)p.[moe](T)p.[moe](T)p.d(A)[sp].d(T)[sp].d([m5C])[sp].d(T)[sp].d(G)[sp].d(T)[sp].d(G)[sp].d([m5C])[sp].d(T)[sp].d(T)[sp].[moe](T)p.[moe](A)p.[moe](G)p.[moe](T)[sp].[moe](G)}$$$$ (last 3' nucleoside missing)”: 2 score 0-7.
As to “RNA1{[moe](A)[sp].[moe](G)p.[moe](T)p.[moe](G)p.[moe](T)p.[moe](G)p.d(T)[sp].d(A)[sp].d(T)[sp].d(T)[sp].d(A)[sp].d(G)[sp].d(G)[sp].d(A)[sp].d(T)[sp].d([m5C])[sp].[moe]([m5C])p.[moe]([m5C])[sp].[moe](A)}$$$$ (last 3' nucleoside missing)”, the 3 h FOB score came out at 4 score 0-7.
The same measure for “RNA1{[moe](G)[sp].[moe](T)p.[moe]([m5C])p.[moe](A)p.d([m5C])[sp].d(A)[sp].d(T)[sp].d(T)[sp].d([m5C])[sp].d(A)[sp].d([m5C])[sp].d(T)[sp].d(A)[sp].d(A)[sp].[moe](T)p.[moe](A)p.[moe](T)p.[moe](T)[sp].[moe](T)}$$$$ (last 3' nucleoside missing)”: 0 score 0-7.
“RNA1{[moe](G)[sp].[moe](T)p.[moe]([m5C])p.[moe](A)p.[moe](G)p.[moe]([m5C])p.d([m5C])[sp].d(T)[sp].d(G)[sp].d(G)[sp].d(T)[sp].d(T)[sp].d(A)[sp].d(G)[sp].d([m5C])[sp].d([m5C])[sp].[moe](T)p.[moe](T)[sp].[moe](T)}$$$$ (last 3' nucleoside missing)” came in with a 3 h FOB score of 4 score 0-7.
Under “RNA1{[moe](T)[sp].[moe](G)p.[moe](G)p.[moe](T)p.[moe](G)p.[moe]([m5C])p.d(T)[sp].d(T)[sp].d(T)[sp].d(T)[sp].d(G)[sp].d([m5C])[sp].d([m5C])[sp].d([m5C])[sp].d([m5C])[sp].d([m5C])[sp].[moe](T)p.[moe](G)[sp].[moe](T)}$$$$ (last 3' nucleoside missing)” stands 1 score 0-7; under “RNA1{[moe]([m5C])[sp].[moe](A)p.[moe]([m5C])p.[moe](A)p.d(T)[sp].d(T)[sp].d([m5C])[sp].d(A)[sp].d([m5C])[sp].d(T)[sp].d(A)[sp].d(A)[sp].d(T)[sp].d(A)[sp].[moe](T)p.[moe](T)p.[moe](T)p.[moe](A)[sp].[moe](A)}$$$$ (last 3' nucleoside missing)”, 0 score 0-7.
As for “RNA1{[moe](G)[sp].[moe](G)p.[moe](T)p.[moe]([m5C])p.[moe]([m5C])p.d(T)[sp].d(A)[sp].d(A)[sp].d(A)[sp].d(T)[sp].d(A)[sp].d(T)[sp].d(T)[sp].d([m5C])[sp].d(T)[sp].[moe](A)p.[moe](G)p.[moe](T)[sp].[moe]([m5C])}$$$$ (last 3' nucleoside missing)”, the 3 h FOB score turned out to be 1 score 0-7.
On to “RNA1{[moe](T)[sp].[moe](G)p.[moe](T)p.[moe](G)p.[moe](A)[sp].d(T)[sp].d(T)[sp].d(T)[sp].d(T)[sp].d([m5C])[sp].d([m5C])[sp].d([m5C])[sp].d([m5C])[sp].[moe](G)p.[moe](T)p.[moe]([m5C])[sp].[moe](T)}$$$$ (last 3' nucleoside missing)”, for which the 3 h FOB score was found to be 0 score 0-7.
Substance “RNA1{[moe]([m5C])[sp].[moe](A)p.[moe]([m5C])p.[moe](G)p.[moe](T)p.d([m5C])[sp].d(A)[sp].d([m5C])[sp].d(A)[sp].d(T)[sp].d(T)[sp].d([m5C])[sp].d(A)[sp].d([m5C])[sp].d(T)[sp].[moe](A)p.[moe](A)p.[moe](T)[sp].[moe](A)}$$$$ (last 3' nucleoside missing)” returned a 3 h FOB score of 0 score 0-7.
On to “RNA1{[moe](G)[sp].[moe](T)p.[moe](G)p.[moe]([m5C])p.[moe](T)p.[moe](T)p.d(T)[sp].d(T)[sp].d(G)[sp].d([m5C])[sp].d([m5C])[sp].d([m5C])[sp].d([m5C])[sp].d([m5C])[sp].d(T)[sp].d(G)[sp].[moe](T)p.[moe](A)[sp].[moe](G)}$$$$ (last 3' nucleoside missing)”, for which the 3 h FOB score came out at 3 score 0-7.
In turn, “RNA1{[moe](G)[sp].[moe](A)p.[moe]([m5C])p.[moe]([m5C])p.[moe](T)[sp].d(G)[sp].d(T)[sp].d(G)[sp].d(A)[sp].d([m5C])[sp].d(T)[sp].d(A)[sp].d(T)[sp].d([m5C])[sp].d(T)[sp].[moe](A)p.[moe](G)p.[moe](G)[sp].[moe](A)}$$$$ (last 3' nucleoside missing)” returned a 3 h FOB score of 3 score 0-7.
For the substance “RNA1{[moe](G)[sp].[moe](G)p.[moe]([m5C])p.[moe](T)p.[moe](T)[sp].d(T)[sp].d(T)[sp].d(G)[sp].d(A)[sp].d(G)[sp].d(A)[sp].d(T)[sp].d(A)[sp].d(T)[sp].d([m5C])[sp].[moe](T)p.[moe](T)p.[moe](G)[sp].[moe](T)}$$$$ (last 3' nucleoside missing)”, the 3 h FOB score turned out to be 5 score 0-7.
“RNA1{[moe]([m5C])[sp].[moe]([m5C])p.[moe](T)p.[moe](G)p.[moe](T)p.[moe](G)p.d(A)[sp].d([m5C])[sp].d(T)[sp].d(A)[sp].d(T)[sp].d([m5C])[sp].d(T)[sp].d(A)[sp].d(G)[sp].d(G)[sp].[moe](A)p.[moe](T)[sp].[moe](T)}$$$$ (last 3' nucleoside missing)”: the 3 h FOB score was 1 score 0-7.
Under “RNA1{[moe]([m5C])[sp].[moe](A)p.[moe](G)p.[moe]([m5C])p.[moe](A)[sp].d(G)[sp].d(T)[sp].d(G)[sp].d([m5C])[sp].d([m5C])[sp].d([m5C])[sp].d(T)[sp].d(G)[sp].d(A)[sp].d(A)[sp].[moe](G)p.[moe](A)p.[moe](T)[sp].[moe](T)}$$$$ (last 3' nucleoside missing)” stands 1 score 0-7; under “RNA1{[moe](G)[sp].[moe](G)p.[moe]([m5C])p.[moe](A)p.d(G)[sp].d(T)[sp].d(A)[sp].d(T)[sp].d(T)[sp].d(A)[sp].d([m5C])[sp].d([m5C])[sp].d(T)[sp].d([m5C])[sp].[moe](T)p.[moe](A)p.[moe]([m5C])p.[moe](T)[sp].[moe](A)}$$$$ (last 3' nucleoside missing)”, 3 score 0-7; under “RNA1{[moe](T)[sp].[moe](T)p.[moe](G)p.[moe](T)p.d([m5C])[sp].d(T)[sp].d(T)[sp].d(T)[sp].d(A)[sp].d(T)[sp].d(T)[sp].d(T)[sp].d(T)[sp].d(T)[sp].[moe]([m5C])p.[moe]([m5C])p.[moe](T)p.[moe]([m5C])[sp].[moe](A)}$$$$ (last 3' nucleoside missing)”, 2 score 0-7.
The same measure for “RNA1{[moe](G)[sp].[moe](T)p.[moe](A)p.[moe](G)p.[moe](T)[sp].d(T)[sp].d(T)[sp].d([m5C])[sp].d([m5C])[sp].d(T)[sp].d(T)[sp].d(T)[sp].d(T)[sp].d(A)[sp].d([m5C])[sp].[moe]([m5C])p.[moe](A)p.[moe](A)[sp].[moe](G)}$$$$ (last 3' nucleoside missing)”: 1 score 0-7.
The same measure for “RNA1{[moe](T)[sp].[moe](G)p.[moe](T)p.[moe](A)p.[moe](T)p.d(T)[sp].d(A)[sp].d(G)[sp].d(G)[sp].d(A)[sp].d(T)[sp].d([m5C])[sp].d([m5C])[sp].d([m5C])[sp].d(A)[sp].[moe](T)p.[moe]([m5C])p.[moe](T)[sp].[moe](A)}$$$$ (last 3' nucleoside missing)”: 4 score 0-7.
In turn, “RNA1{[moe](G)[sp].[moe](T)p.[moe](G)p.[moe](T)p.[moe](G)[sp].d(T)[sp].d(A)[sp].d(T)[sp].d(T)[sp].d(A)[sp].d(G)[sp].d(G)[sp].d(A)[sp].d(T)[sp].d([m5C])[sp].[moe]([m5C])p.[moe]([m5C])p.[moe](A)[sp].[moe](T)}$$$$ (last 3' nucleoside missing)” showed a 3 h FOB score of 6 score 0-7.
Turning to “RNA1{[moe](T)[sp].[moe]([m5C])p.[moe](A)p.[moe](G)p.[moe](T)p.d(T)[sp].d(T)[sp].d(T)[sp].d([m5C])[sp].d([m5C])[sp].d(T)[sp].d([m5C])[sp].d([m5C])[sp].d(A)[sp].d(G)[sp].[moe]([m5C])p.[moe](A)p.[moe](G)[sp].[moe]([m5C])}$$$$ (last 3' nucleoside missing)”, the 3 h FOB score came out at 2 score 0-7.
Turning to “RNA1{[moe](T)[sp].[moe](G)p.[moe](A)p.[moe](G)p.[moe](G)[sp].d([m5C])[sp].d(T)[sp].d(T)[sp].d(T)[sp].d(T)[sp].d(G)[sp].d(A)[sp].d(G)[sp].d(A)[sp].d(T)[sp].[moe](A)p.[moe](T)p.[moe]([m5C])[sp].[moe](T)}$$$$ (last 3' nucleoside missing)”, the 3 h FOB score was determined as 3 score 0-7.
Consider “RNA1{[moe](T)[sp].[moe](G)p.[moe](A)p.[moe]([m5C])p.[moe](T)p.d(A)[sp].d(T)[sp].d([m5C])[sp].d(T)[sp].d(A)[sp].d(G)[sp].d(G)[sp].d(A)[sp].d(T)[sp].d(T)[sp].[moe](T)p.[moe](G)p.[moe](G)[sp].[moe]([m5C])}$$$$ (last 3' nucleoside missing)”, for which the 3 h FOB score is 3 score 0-7.
